From patent publication US10828316B2, “Method of treating bacterial infections” (priority 2016, dated 2020) come the findings set out here.

The test system of assay [1] is K. pneumoniae EN0262. The assay can be described thus: MIC. The assay is classed as cell-based. To be noted: in FdUrd+trimethoprim+uridine combination.
For assay [2], the system named is K. pneumoniae EN0245. The assay can be described thus: MIC. To be noted: in FdUrd+trimethoprim+uridine combination. The assay is classed as cell-based.
The test system of assay [3] is A. baumannii EN007. Briefly: MIC. The class given is cell-based, Acinetobacter baumannii. The note with it: in FdUrd+trimethoprim+uridine combination.
For assay [4], the system named is E. coli EN003. Briefly: MIC. The class given is cell-based, Escherichia coli. To be noted: in FdUrd+trimethoprim+uridine combination.
Assay [5] has as its system E. coli EN0139. The assay can be described thus: MIC. The assay is classed as cell-based. The note with it: in FdUrd+trimethoprim+uridine combination.
Assay [6] deals with E. coli EN0135. Briefly: MIC. The assay is classed as cell-based. To be noted: in FdUrd+trimethoprim+uridine combination.
In assay [7] the test system is E. coli EN0137. The assay can be described thus: MIC. The assay is classed as cell-based. To be noted: in FdUrd+trimethoprim+uridine combination.
The subject of assay [8] is P. aeruginosa EN014. The assay can be described thus: MIC. The class given is cell-based, Pseudomonas aeruginosa. The note with it: in FdUrd+trimethoprim+uridine combination.
Assay [9] relates to P. aeruginosa EN004. The assay can be described thus: MIC. The assay is classed as cell-based, Pseudomonas aeruginosa. The note with it: in FdUrd+trimethoprim+uridine combination.
In assay [10] the test system is P. mirabilis EN0457. Briefly: MIC. The assay is classed as cell-based, Proteus mirabilis. The note with it: in FdUrd+trimethoprim+uridine combination.
Assay [11] concerns P. aeruginosa EN005. Briefly: MIC. The class given is cell-based, Pseudomonas aeruginosa. To be noted: in FdUrd+trimethoprim+uridine combination.
The subject of assay [12] is E. coli EN0136. The assay can be described thus: MIC. The assay is classed as cell-based. To be noted: in FdUrd+trimethoprim+uridine combination.
The subject of assay [13] is K. pneumoniae EN0249. The assay can be described thus: MIC. To be noted: in FdUrd+trimethoprim+uridine combination. The class given is cell-based.
Assay [14] concerns K. pneumoniae EN0437. The assay can be described thus: MIC. The class given is cell-based. To be noted: in FdUrd+trimethoprim+uridine combination.
Assay [15] relates to E. coli EN0235. The class given is cell-based.
Assay [16] concerns M. luteus EN0455. Briefly: MIC. The note with it: in FdUrd+trimethoprim+uridine combination. The class given is cell-based, Micrococcus luteus.
Assay [17] deals with K. pneumoniae EN0140. The assay can be described thus: MIC. The note with it: in FdUrd+trimethoprim+uridine combination. The assay is classed as cell-based.
The test system of assay [18] is A. pittii or A. nosocomialis EN0180. The assay can be described thus: MIC. To be noted: in FdUrd+trimethoprim+uridine combination. The assay is classed as cell-based, Acinetobacter pittii or nosocomialis.
Assay [19] deals with K. pneumoniae EN0144. The assay can be described thus: MIC. The class given is cell-based. The note with it: in FdUrd+trimethoprim+uridine combination.
Assay [20] deals with E. coli EN0138. Briefly: MIC. To be noted: in FdUrd+trimethoprim+uridine combination. The assay is classed as cell-based.
Assay [21] deals with E. coli EN0134. The assay can be described thus: MIC. The assay is classed as cell-based. To be noted: in FdUrd+trimethoprim+uridine combination.
In assay [22] the test system is K. pneumoniae EN0142. Briefly: MIC. The class given is cell-based. To be noted: in FdUrd+trimethoprim+uridine combination.
The subject of assay [23] is S. marescens EN0454. The assay can be described thus: MIC. The class given is cell-based, Serratia marescens. To be noted: in FdUrd+trimethoprim+uridine combination.
Assay [24] deals with P. aeruginosa EN0459. Briefly: MIC. The assay is classed as cell-based, Pseudomonas aeruginosa. To be noted: in FdUrd+trimethoprim+uridine combination.
Assay [25] relates to S. aureus strain no 13. Briefly: MIC. The note with it: Staphylococcus aureus, NO13, read-out: MIC of trimethoprim only.
Assay [26] concerns E. coli.
Assay [27] has as its system E. coli strain no 2. The assay can be described thus: MIC. To be noted: Escherichia coli.

≈ marks a conversion by molar mass, not a printed value. Read-outs that look alike come from different tables or passages of the source. Where only a bound is given, the exact number is not on record here.

Turning to `O=c1[nH]c(=O)n([C@H]2C[C@H](O)[C@@H](CO)O2)cc1F` [FdUrd], the MIC (in general, the least concentration at which growth counts as inhibited) in assay [1] was 2 µg/mL; in assay [2], over 4 µg/mL; in assay [3], over 4 µg/mL; in [4], 0.016 µg/mL; in assay [5], 0.5 µg/mL; in assay [6], 0.25 µg/mL. Besides, the MIC in [7] was over 4 µg/mL; in assay [8] it was over 4 µg/mL; in [9] it was over 4 µg/mL; in [10] it was 1 µg/mL; in assay [11] it was 0.25 µg/mL; in assay [12], 1 µg/mL. Moreover, the minimum inhibitory concentration (MIC) was over 4 µg/mL in assay [13]; over 4 µg/mL in assay [14]; 0.06 µg/mL (≈ 0.244 µM) in assay [15]; 2 µg/mL in assay [16]; over 4 µg/mL in assay [17]; 4 µg/mL in assay [18]. Also, the MIC in assay [19] is over 4 µg/mL; in assay [20], 0.25 µg/mL; in assay [21], over 4 µg/mL; in [22], 0.125 µg/mL; in assay [23], over 4 µg/mL; in assay [24], over 4 µg/mL.

In the case of `COc1cc(Cc2cnc(N)nc2N)cc(OC)c1OC` [Trimethoprim, trimethoprim], the minimal inhibitory concentration (MIC) was under 32 µg/mL in assay [25]; 5 to 10 µg/mL (≈ 17.2 to 34.4 µM) in assay [27] (NO2, E. coli strain 2, 5 uM thymidine, uridine 0 μg/ml); 2.5 to 5 µg/mL (≈ 8.61 to 17.2 µM) in assay [27] (NO2, E. coli strain 2, 5 uM thymidine, uridine 10 μg/ml); 2.5 to 5 µg/mL (≈ 8.61 to 17.2 µM) in assay [27] (NO2, E. coli strain 2, 5 uM thymidine, uridine 100 μg/ml); 8 to 16 µg/mL in [27] (NO2, read-out: MIC of trimethoprim only, E. coli strain no 2). For the same compound, the score at sampling in [26] (Trimethoprim 30 mg/kg, single mice) came to 1. Further, the “inhibition in mice infected with E. coli” value in assay [26] (murine peritonitis model) is on record as “slight inhibition”.
